# In the supplement of paper PMC13380429:
# Assays:
# Conditions in all cases: 72 h
# HepG2 [1] = experiment: cell viability relative to DMSO; higher = less toxic
# Vero E6 [2] = experiment: as above
# Caco-2 [3] = experiment: as above
# Calu-3 [4] = experiment: as above
# U2OS [5] = experiment: as above
# HepG2 [6] = experiment: relative viability EC50 (midpoint between 100% and the lowest measured viability); higher = less toxic
# Vero E6 [7] = experiment: as above
# Caco-2 [8] = experiment: as above
# Calu-3 [9] = experiment: as above
# U2OS [10] = experiment: as above
# HepG2 [11] = experiment: drug sensitivity score (DSS) for viability; higher = more toxic; extreme values may be limits of the assay
# Vero E6 [12] = experiment: as above
# Caco-2 [13] = experiment: as above
# Calu-3 [14] = experiment: as above
# U2OS [15] = experiment: as above
Compound,cell viability (HepG2 [1]; 1 nM) [%],cell viability (HepG2 [1]; 10 nM) [%],cell viability (HepG2 [1]; 100 nM) [%],cell viability (HepG2 [1]; 1000 nM) [%],cell viability (HepG2 [1]; 10000 nM) [%],cell viability (Vero E6 [2]; 1 nM) [%],cell viability (Vero E6 [2]; 10 nM) [%],cell viability (Vero E6 [2]; 100 nM) [%],cell viability (Vero E6 [2]; 1000 nM) [%],cell viability (Vero E6 [2]; 10000 nM) [%],cell viability (Caco-2 [3]; 1 nM) [%],cell viability (Caco-2 [3]; 10 nM) [%],cell viability (Caco-2 [3]; 100 nM) [%],cell viability (Caco-2 [3]; 1000 nM) [%],cell viability (Caco-2 [3]; 10000 nM) [%],cell viability (Calu-3 [4]; 1 nM) [%],cell viability (Calu-3 [4]; 10 nM) [%],cell viability (Calu-3 [4]; 100 nM) [%],cell viability (Calu-3 [4]; 1000 nM) [%],cell viability (Calu-3 [4]; 10000 nM) [%],cell viability (U2OS [5]; 1 nM) [%],cell viability (U2OS [5]; 10 nM) [%],cell viability (U2OS [5]; 100 nM) [%],cell viability (U2OS [5]; 1000 nM) [%],cell viability (U2OS [5]; 10000 nM) [%],relative viability EC50 (HepG2 [6]) [µM],relative viability EC50 (Vero E6 [7]) [µM],relative viability EC50 (Caco-2 [8]) [µM],relative viability EC50 (Calu-3 [9]) [µM],relative viability EC50 (U2OS [10]) [µM],drug sensitivity score (HepG2 [11]),drug sensitivity score (Vero E6 [12]),drug sensitivity score (Caco-2 [13]),drug sensitivity score (Calu-3 [14]),drug sensitivity score (U2OS [15])
Cc1cc2c(C(C)C)c(O)c(O)c(C=O)c2c(O)c1-c1c(C)cc2c(C(C)C)c(O)c(O)c(C=O)c2c1O [gossypol],102,96.3,95.3,96.1,9.6,100,98.1,97.6,98.6,13.1,101,104,107,90.9,0.8,100,100,103,103,36.9,96.8,101,98.6,95.9,11.9,2.84,3.05,2.41,3.4,2.81,5.6,5,7,3.2,5.5
CC(CNC1CCCCC1)OC(=O)c1ccccc1 (stereo not given) [hexylcaine],106,102,91,88.5,102,97.3,102,96.8,93.1,105,99,88.5,98,105,102,104,107,95.2,103,95.5,103,101,99.1,103,104,> 10,> 10,> 10,> 10,> 10,0,0,0,0,0
C=CCc1ccc(O)c(-c2ccc(O)c(CC=C)c2)c1 [honokiol],108,109,109,93.2,88.4,95.7,98.9,97.7,95.4,107,93.8,94.3,102,90.1,90.9,104,111,94.4,96.6,97,94.4,95.1,99.3,99.4,88.9,> 10,> 10,> 10,> 10,> 10,0.2,0,0,0,0
CCN(CCO)CCCC(C)Nc1ccnc2cc(Cl)ccc12 (stereo not given) [hydroxychloroquine],101,95.9,96.8,94.6,89.6,101,95.4,108,93.9,96.8,103,116,100,102,85.4,94.1,105,86.8,109,95.9,97.1,98.1,93.4,96.8,89.4,> 10,> 10,> 10,> 10,> 10,0,0,0.1,0,0
O=C1NC(c2cccc([N+](=O)[O-])c2)=CCN1c1ccccc1O [icilin],94.3,93.4,103,98,101,91.9,94.3,94,94.9,106,93.4,102,97.6,99.2,100,97.4,94.1,93.7,108,108,95.5,103,98.3,103,104,> 10,> 10,> 10,> 10,> 10,0,0,0,0,0
Nc1c2c(nc3c1CCC3)CCCC2 [ipidacrine],101,99.9,104,94.6,109,96.5,96.4,95.8,94.7,108,84.5,96.4,96.3,91.8,106,99.2,99.9,88.6,90.9,100,96.8,93.4,103,94.8,99.4,> 10,> 10,> 10,> 10,> 10,0,0,0,0,0
CC[C@H](C)[C@H](N)C(=O)O [isoleucine],99.5,95.6,104,90.8,97.4,92.1,97.3,96.4,95.4,106,88.4,100,99.3,94.5,108,101,89.1,91.1,99.9,103,101,96.8,96.3,107,106,> 10,> 10,> 10,> 10,> 10,0,0,0,0,0
